# Patent publication US20210341378A1, “HIGH-CONTENT IMAGING OF MICROFLUIDIC DEVICES” (priority 2019, published 2021)
# Experiments:
# [1] = test system: microfluidic devices seeded with rat liver cells; assay: Albumin secretion (ELISA), rat Liver-Chip; type: cell-based; settings: FIAU 1, 10 and 30 μM, rat chip
# Text: Prior to cell seeding, microfluidic devices, in this case S-I Chips (Emulate, Inc. Boston, Mass., USA), were functionalized using Emulate's proprietary protocols and reagents (ER™), including those described herein. After surface functionalization, both channels of the microfluidic device were coated with species-specific extracellular matrices (ECM). For the human bound microfluidic device, a mixture of collagen type I (Corning, Corning, N.Y., USA) and fibronectin, e.g. bovine, (Gibco) was used; for the rat bound microfluidic devices a mixture of collagen type IV, e.g. human placenta, (Sigma-Aldrich, St. Louis, Mo., USA) and fibronectin (Gibco) was used; for the dog bound microfluidic devices a mixture of collagen I (Corning), collagen type IV (Sigma-Aldrich), and fibronectin (Gibco) was used. […] For the dual-cell culture model (hepatocytes and endothelial cells), the LSECs were seeded at a concentration of 2-4 million cells/mL in the lower vascular channel. […] Albumin secretion from the upper channel was quantified using ELISA kits for human, rat, and dog models effluent samples (human and rat: Abcam; dog: Immunology Consultants Laboratory, Inc., Portland, Oreg., USA) and the assays were performed according to the protocol provided by each vendor.
# [2] = test system: microfluidic devices seeded with human liver cells; assay: Albumin secretion (ELISA), human Liver-Chip; type: cell-based
# Text: Prior to cell seeding, microfluidic devices, in this case S-I Chips (Emulate, Inc. Boston, Mass., USA), were functionalized using Emulate's proprietary protocols and reagents (ER™), including those described herein. After surface functionalization, both channels of the microfluidic device were coated with species-specific extracellular matrices (ECM). For the human bound microfluidic device, a mixture of collagen type I (Corning, Corning, N.Y., USA) and fibronectin, e.g. bovine, (Gibco) was used; for the rat bound microfluidic devices a mixture of collagen type IV, e.g. human placenta, (Sigma-Aldrich, St. Louis, Mo., USA) and fibronectin (Gibco) was used; for the dog bound microfluidic devices a mixture of collagen I (Corning), collagen type IV (Sigma-Aldrich), and fibronectin (Gibco) was used. […] For the dual-cell culture model (hepatocytes and endothelial cells), the LSECs were seeded at a concentration of 2-4 million cells/mL in the lower vascular channel. […] After cell seeding, the upper channel of the microfluidic device was maintained in William's E Medium (WEM) containing Glutamax (Gibco), ITS+ (Corning), dexamethasone (Sigma-Aldrich), ascorbic acid (Sigma-Aldrich), fetal bovine serum (FBS) (Sigma-Aldrich), and Penicillin/Streptomycin (Sigma-Aldrich). The vascular channel of the microfluidic device was maintained with species-specific endothelial media (Emulate, Inc.). Two days after seeding, the microfluidic devices were connected to the Human Emulation System™ (Emulate, Inc.), as described in part herein, and both of the microfluidic device channels were perfused at 30 μL/hr to provide a continuous supply of fresh media for the duration of the experiments. Albumin secretion from the upper channel was quantified using ELISA kits for human, rat, and dog models effluent samples (human and rat: Abcam; dog: Immunology Consultants Laboratory, Inc., Portland, Oreg., USA) and the assays were performed according to the protocol provided by each vendor.
# [3] = cited from earlier work
# [4] = test system: microfluidic devices seeded with human liver cells; assay: Release of DILI biomarkers (miR-122, alpha-GST, keratin 18), human Liver-Chip; type: cell-based
# Text: Exemplary Biomarker, e.g. DILI: Keratin 18 levels were quantified in human model effluent samples from both the hepatocyte and vascular channels using the M65 EpiDeath CK18 ELISA Kit (DiaPharma, Detroit, Mich., USA). The assay was run following the vendor protocol using a standard curve ranging from 0-5,000 U/L. Additionally, a standard curve ranging from 0-500 U/L was generated independently for quality control.
# Exemplary Biomarker, e.g. DILI: Alpha Glutathione S-Transferase (α-GST) levels were quantified in human model effluent samples from the upper channel using an ELISA kit (DiaPharma). The assay was run following the vendor protocol using a standard curve ranging from 0-64 μg/L. Additionally, a standard curve ranging from 0-50 μg/L was generated independently for quality control.
# Exemplary Biomarker, e.g. DILI: Mir-122: Isolation of micro-RNAs was performed on upper and lower chamber eluates using Qiagen's (Hilden, Germany) miRNA isolation kit for serum and plasma. A total volume of 50 μL was used for isolation. Isolation was performed according to manufacturer's protocol using a 56.5 pM oligonucleotide spike-in control. Samples were eluted with 14 μL RNase-free water. Reverse transcription was performed using Thermo Fisher Scientific's TaqMan™ MicroRNA Reverse Transcription Kit according to the manufacturer's protocol. A total reaction volume of 15 μL was used. Real-time PCR was performed using Thermo Fisher Scientific's TaqMan™ Micro-RNA Assays according to manufacturer's protocol. A total reaction volume of 10 μL was used. Normalized rrCt was used for fold-change analysis.
# [5] = test system: microfluidic devices seeded with human liver cells; assay: Lipid accumulation (Nile red / AdipoRed), human Liver-Chip; type: cell-based
# Text: (§1) Microfluidic devices seeded with liver cells were stained in the upper channel with 5(6)-Carboxy-2′,7′-dichlorofluorescein diacetate (CDFDA) (ThermoFisher) to visualize bile canaliculi and MRP2 activity, cholyl-lysyl-fluorescein (CLF) (Corning) to visualize bile canaliculi and BSEP activity, Nile red (ThermoFisher) or AdipoRed (Lonza) to visualize lipid droplet accumulation, Tetramethylrhodamine, methyl ester (TMRM) (ThermoFisher) to visualize active mitochondria, and CellROX® (ThermoFisher) to visualize cellular oxidative stress. Each staining solution was prepared in blank medium or compound dosing medium and added to the upper channel, incubated for 15 minutes at 37° C., and washed three times with medium. The stained microfluidic devices were imaged using a specific filter, and were de-blurred with Olympus cellSens software. Using ImageJ-Fiji, the fluorescent channel images were histogram adjusted to remove background, followed by fluorescence quantification using the Integrated Density calculation function.
# (§2) The stained microfluidic devices were imaged using the TRITC filter, and were de-blurred with Olympus cellSens software. Using ImageJ-Fiji, the fluorescent channel images were histogram adjusted to remove background, followed by fluorescence quantification using the Integrated Density calculation function. N=5 FOVs per microfluidic device were analyzed for conditions: vehicle (0.1% DMSO), FIAU dosing groups, and MTX dosing groups.
# [6] = test system: microfluidic devices seeded with rat liver cells; assay: Lipid accumulation (Nile red), rat Liver-Chip; type: cell-based; settings: FIAU 1, 10 and 30 μM for 10 days
# Text: as §1, with “The stained microfluidic devices were imaged using a specific filter, and were de-blurred with Olympus cellSens software.” left out
# as §2
# [7] = test system: microfluidic devices seeded with human liver cells; assay: Cytokine release (IL-6, MCP-1, IP-10) from vascular channel, human Liver-Chip; type: cell-based; settings: for release of IL-6 / release of MCP-1: 14 days
# Method: Cytokines: Release of IL-6, MCP-1, and IP-10 from the vascular channel was quantified using U-PLEX biomarker human assays (Meso Scale Diagnostics, Rockville, Md., USA) and the assays were performed according to the protocol provided by the vendor.
# [8] = test system: microfluidic devices seeded with human liver cells; assay: ROS (CellROX) live staining, human Liver-Chip; type: cell-based; settings: TAK-875, human chip
# [9] = biological target: T1, MRP2 (Homo sapiens, UniProt Q92887); assay: Biliary efflux of CDFDA (MRP2 activity), human Liver-Chip; type: cell-based; settings: TAK-875 3, 10, 30 μM
# T1 construct: Primary rat, dog or human hepatocytes were cultured in the upper parenchymal channel; endogenous in cells; host or cells: primary human hepatocytes in a microfluidic Liver-Chip
# Method: Both a brightfield and a fluorescence image was taken from each field of view. […] CLF-labeled regions that most likely to corresponded to bile canaliculi were automatically identified based on geometric criteria and retained only if they co-localized with a bile canaliculi signal in channel 1. […] These criteria were determined empirically using a small test set of images and then applied to images for the analysis. […] The data for treated and control samples were quantified by computing the area percentage of CLF-labeled bile canaliculi within each field of view (FOV).
# [10] = test system: stellate cells; assay: Stellate cell activation (alpha-SMA), human Liver-Chip; type: cell-based; settings: TAK-875 10 or 30 uM for 15 days
# Method: Microfluidic devices seeded with liver cells and static sandwich plate cultures were fixed with 4% paraformaldehyde for 15 minutes at room temperature, washed with PBS, and permeabilized (saponin 1% with 10% serum in PBS). Blocking and incubation with the primary antibodies (overnight in PBS containing 1% BSA or PBS containing 10% serum and 1% BSA) was followed by a two-hour incubation with secondary antibodies (Cell Signaling, Danvers, Mass., USA) in the same blocking buffer. Immunostaining was performed with specific primary antibodies (anti-MRP2, anti-stabilin-1, anti-BSEP, anti-α-SMA, anti-CD68; Abcam, Cambridge, Mass., USA) and images were acquired with either an Olympus fluorescence microscope (IX83) or Zeiss confocal microscope (AxiovertZ1 LSM880).
# The number of CD68- or α-SMA-positive cells in the vascular channel in each group was counted in each field of view ([…]) and quantified.
# The fluorescent channel (588) was first background subtracted and processed using the median filter of Image J. After processing, the signal was thresholded using adaptive thresholding function of Image J (Otsu method) to extract fluorescent regions and to measure the relative intensity of the fluorescent signal. N=4 to 6 FOVs per microfluidic device from each microfluidic device were analyzed. […]
# [11] = test system: mitochondrial membrane potential; assay: TMRM staining (mitochondrial membrane potential), human Liver-Chip; type: cell-based; settings: TAK-875 3, 10, 30 μM, 8 or 15 days
# Text: as §1
# T1 sequence (Q92887 whole entry): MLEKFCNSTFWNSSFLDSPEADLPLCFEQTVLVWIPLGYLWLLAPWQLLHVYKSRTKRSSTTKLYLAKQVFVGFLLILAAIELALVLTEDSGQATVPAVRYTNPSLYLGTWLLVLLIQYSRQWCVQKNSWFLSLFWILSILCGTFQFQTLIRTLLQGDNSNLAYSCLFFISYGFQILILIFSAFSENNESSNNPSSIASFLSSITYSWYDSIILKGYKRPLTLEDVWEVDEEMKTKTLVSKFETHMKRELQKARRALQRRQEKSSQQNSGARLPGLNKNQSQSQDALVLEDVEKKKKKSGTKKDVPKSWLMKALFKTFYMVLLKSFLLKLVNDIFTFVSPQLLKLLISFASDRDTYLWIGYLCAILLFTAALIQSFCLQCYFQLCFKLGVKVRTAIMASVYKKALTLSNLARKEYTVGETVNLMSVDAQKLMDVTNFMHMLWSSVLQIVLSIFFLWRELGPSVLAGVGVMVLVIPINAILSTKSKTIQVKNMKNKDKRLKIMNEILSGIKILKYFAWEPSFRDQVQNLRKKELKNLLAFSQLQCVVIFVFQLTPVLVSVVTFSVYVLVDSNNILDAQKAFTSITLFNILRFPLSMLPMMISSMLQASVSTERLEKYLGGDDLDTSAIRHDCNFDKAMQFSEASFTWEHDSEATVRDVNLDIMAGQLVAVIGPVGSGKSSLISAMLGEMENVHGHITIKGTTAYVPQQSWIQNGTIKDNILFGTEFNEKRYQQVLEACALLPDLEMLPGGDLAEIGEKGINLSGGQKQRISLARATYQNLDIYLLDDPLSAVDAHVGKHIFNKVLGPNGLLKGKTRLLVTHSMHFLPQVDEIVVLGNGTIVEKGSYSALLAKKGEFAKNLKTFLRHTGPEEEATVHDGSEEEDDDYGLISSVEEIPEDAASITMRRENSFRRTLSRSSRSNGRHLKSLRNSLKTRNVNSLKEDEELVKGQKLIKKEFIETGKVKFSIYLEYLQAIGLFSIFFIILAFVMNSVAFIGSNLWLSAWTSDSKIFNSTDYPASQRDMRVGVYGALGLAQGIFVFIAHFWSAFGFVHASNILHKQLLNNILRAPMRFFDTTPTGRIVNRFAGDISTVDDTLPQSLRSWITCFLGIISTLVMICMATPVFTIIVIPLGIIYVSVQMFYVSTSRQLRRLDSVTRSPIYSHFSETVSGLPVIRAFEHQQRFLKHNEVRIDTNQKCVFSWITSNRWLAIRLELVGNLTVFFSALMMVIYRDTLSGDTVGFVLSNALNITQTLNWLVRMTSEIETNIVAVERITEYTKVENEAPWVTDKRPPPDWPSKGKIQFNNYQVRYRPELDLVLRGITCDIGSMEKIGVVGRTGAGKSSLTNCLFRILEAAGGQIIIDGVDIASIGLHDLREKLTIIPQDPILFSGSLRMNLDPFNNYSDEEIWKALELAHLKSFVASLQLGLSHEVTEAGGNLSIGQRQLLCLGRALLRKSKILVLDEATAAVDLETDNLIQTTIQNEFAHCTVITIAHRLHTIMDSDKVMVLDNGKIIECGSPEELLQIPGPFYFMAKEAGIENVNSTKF
compound,measurement,setting,value
"O=c1[nH]c(=O)n([C@@H]2O[C@H](CO)[C@@H](O)[C@@H]2F)cc1I [FIAU, fialuridine]",hepatocyte function (albumin secretion),[1],no effects
same,concentrations giving dose-dependent decline in albumin secretion,"[2]; FIAU, human quadruple-cell chip, 7 days",≥ 1000 nM
same,patients with liver failure and deaths,[3]; Phase II clinical trials,5/15
same,keratin 18 (K-18),"[4]; FIAU 10 days, human chip",release
same,miR122,"[4]; FIAU 10 days, human chip",release
same,α-GST,"[4]; FIAU 10 days, human chip",release
same,lipid accumulation,"[5]; daily 1, 10 and 30 μM for 10 days, human quadruple-cell chip",dose-dependent increase
same,lipid accumulation,[6],no effects
same,cytokines/chemokines including IP-10,[7]; treated Liver-Chips (discussion),release
Cc1cc(OCCCS(C)(=O)=O)cc(C)c1-c1cccc(COc2ccc3c(c2)OC[C@H]3CC(=O)O)c1 [TAK-875],albumin production,"[2]; TAK-875 30 μM, 14 days",decreased
same,incidence of treatment-related elevations in transaminases,"[3]; human, in vivo",2.7%
same,K18,"[4]; TAK-875 30 μM, 14 days",increased release
same,formation of ROS,[8],increase
same,lipid droplet accumulation,"[5]; TAK-875, end of the 2-week treatment",detected
same,biliary efflux of the MRP2 substrate CDFDA,[9],dose-dependent decrease
same,% aSMA positive area from the vascular channel,[10],Not significant
same,release of IL-6,[7]; TAK-875 10 μM,significant release
same,release of MCP-1,[7]; TAK-875 10 μM,significant release
same,release of IL-6,[7]; TAK-875 30 μM,not observed
same,release of MCP-1,[7]; TAK-875 30 μM,not observed
same,mitochondrial potential sensitive dye TMRM,[11],dose-related and time-dependent redistribution
